Experimental data taken from US20120245137A1 (Zalicus Pharmaceuticals Ltd., priority 2009, published 2012).
Read-outs that look alike come from different tables or passages of the source.

Columns and labels:
Format in all cases: cell-based
[1] = target: CAv1.2 (Homo sapiens, UniProt Q13936); assay: FLIPR data, CAv1.2 channel blocking (Table 6); details: for CAv1.2 IC50 Ratio closed/inact.: ratio closed/inactivated IC50
[2] = target: Human Cav 2.2 channels (Homo sapiens, UniProt Q00975); assay: Fluorescent assay for CaV2.2 channels using potassium depolarization (VIPR/FLIPR); details: FLIPR data; for CAv2.2 IC50 Ratio closed/inact.: ratio closed/inactivated IC50
Method in brief: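 HEK293 cells stably expressing human Cav2.2 with α2δ and β subunits plus Kir2.3 were loaded with fluo-4 and incubated 30 min at 25 °C with compound in 4, 12, 25 or 30 mM potassium buffer. Channels were opened with 70 mM potassium (final) and calcium influx was read by fluorescence (Ex 480/Em 535 nm).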

[3] = target: T-type calcium channel (Homo sapiens, UniProt O43497); assay: T-type channel blocking, FLIPR data (Table 6); details: CAv3.1
Source text: (§1) Another method, high-throughput spectrophotometric assay, utilizes loading of the cell lines with a fluorescent dye sensitive to intracellular calcium concentration and subsequent examination of the effects of compounds on the ability of depolarization by potassium chloride or other means to alter intracellular calcium levels.

[4] = target: T-type calcium channel (Homo sapiens, UniProt O95180); assay: T-type channel blocking, FLIPR data (Table 6); details: for CAv3.2 IC50 Ratio closed/inact.: CAv3.2, ratio closed/inactivated IC50
Source text: as §1

[5] = closed state, read-out: CAv1.2 IC50 Closed
[6] = inactivated state, read-out: CAv1.2 IC50 Inact.
[7] = closed state, read-out: CAv2.2 IC50 Closed
[8] = inactivated state, read-out: CAv2.2 IC50 Inact.
[9] = CAv3.2, closed state, read-out: CAv3.2 IC50 Closed
[10] = CAv3.2, inactivated state, read-out: CAv3.2 IC50 Inact.

T-type calcium channel (Homo sapiens, UniProt O95180), sequence (O95180 whole entry): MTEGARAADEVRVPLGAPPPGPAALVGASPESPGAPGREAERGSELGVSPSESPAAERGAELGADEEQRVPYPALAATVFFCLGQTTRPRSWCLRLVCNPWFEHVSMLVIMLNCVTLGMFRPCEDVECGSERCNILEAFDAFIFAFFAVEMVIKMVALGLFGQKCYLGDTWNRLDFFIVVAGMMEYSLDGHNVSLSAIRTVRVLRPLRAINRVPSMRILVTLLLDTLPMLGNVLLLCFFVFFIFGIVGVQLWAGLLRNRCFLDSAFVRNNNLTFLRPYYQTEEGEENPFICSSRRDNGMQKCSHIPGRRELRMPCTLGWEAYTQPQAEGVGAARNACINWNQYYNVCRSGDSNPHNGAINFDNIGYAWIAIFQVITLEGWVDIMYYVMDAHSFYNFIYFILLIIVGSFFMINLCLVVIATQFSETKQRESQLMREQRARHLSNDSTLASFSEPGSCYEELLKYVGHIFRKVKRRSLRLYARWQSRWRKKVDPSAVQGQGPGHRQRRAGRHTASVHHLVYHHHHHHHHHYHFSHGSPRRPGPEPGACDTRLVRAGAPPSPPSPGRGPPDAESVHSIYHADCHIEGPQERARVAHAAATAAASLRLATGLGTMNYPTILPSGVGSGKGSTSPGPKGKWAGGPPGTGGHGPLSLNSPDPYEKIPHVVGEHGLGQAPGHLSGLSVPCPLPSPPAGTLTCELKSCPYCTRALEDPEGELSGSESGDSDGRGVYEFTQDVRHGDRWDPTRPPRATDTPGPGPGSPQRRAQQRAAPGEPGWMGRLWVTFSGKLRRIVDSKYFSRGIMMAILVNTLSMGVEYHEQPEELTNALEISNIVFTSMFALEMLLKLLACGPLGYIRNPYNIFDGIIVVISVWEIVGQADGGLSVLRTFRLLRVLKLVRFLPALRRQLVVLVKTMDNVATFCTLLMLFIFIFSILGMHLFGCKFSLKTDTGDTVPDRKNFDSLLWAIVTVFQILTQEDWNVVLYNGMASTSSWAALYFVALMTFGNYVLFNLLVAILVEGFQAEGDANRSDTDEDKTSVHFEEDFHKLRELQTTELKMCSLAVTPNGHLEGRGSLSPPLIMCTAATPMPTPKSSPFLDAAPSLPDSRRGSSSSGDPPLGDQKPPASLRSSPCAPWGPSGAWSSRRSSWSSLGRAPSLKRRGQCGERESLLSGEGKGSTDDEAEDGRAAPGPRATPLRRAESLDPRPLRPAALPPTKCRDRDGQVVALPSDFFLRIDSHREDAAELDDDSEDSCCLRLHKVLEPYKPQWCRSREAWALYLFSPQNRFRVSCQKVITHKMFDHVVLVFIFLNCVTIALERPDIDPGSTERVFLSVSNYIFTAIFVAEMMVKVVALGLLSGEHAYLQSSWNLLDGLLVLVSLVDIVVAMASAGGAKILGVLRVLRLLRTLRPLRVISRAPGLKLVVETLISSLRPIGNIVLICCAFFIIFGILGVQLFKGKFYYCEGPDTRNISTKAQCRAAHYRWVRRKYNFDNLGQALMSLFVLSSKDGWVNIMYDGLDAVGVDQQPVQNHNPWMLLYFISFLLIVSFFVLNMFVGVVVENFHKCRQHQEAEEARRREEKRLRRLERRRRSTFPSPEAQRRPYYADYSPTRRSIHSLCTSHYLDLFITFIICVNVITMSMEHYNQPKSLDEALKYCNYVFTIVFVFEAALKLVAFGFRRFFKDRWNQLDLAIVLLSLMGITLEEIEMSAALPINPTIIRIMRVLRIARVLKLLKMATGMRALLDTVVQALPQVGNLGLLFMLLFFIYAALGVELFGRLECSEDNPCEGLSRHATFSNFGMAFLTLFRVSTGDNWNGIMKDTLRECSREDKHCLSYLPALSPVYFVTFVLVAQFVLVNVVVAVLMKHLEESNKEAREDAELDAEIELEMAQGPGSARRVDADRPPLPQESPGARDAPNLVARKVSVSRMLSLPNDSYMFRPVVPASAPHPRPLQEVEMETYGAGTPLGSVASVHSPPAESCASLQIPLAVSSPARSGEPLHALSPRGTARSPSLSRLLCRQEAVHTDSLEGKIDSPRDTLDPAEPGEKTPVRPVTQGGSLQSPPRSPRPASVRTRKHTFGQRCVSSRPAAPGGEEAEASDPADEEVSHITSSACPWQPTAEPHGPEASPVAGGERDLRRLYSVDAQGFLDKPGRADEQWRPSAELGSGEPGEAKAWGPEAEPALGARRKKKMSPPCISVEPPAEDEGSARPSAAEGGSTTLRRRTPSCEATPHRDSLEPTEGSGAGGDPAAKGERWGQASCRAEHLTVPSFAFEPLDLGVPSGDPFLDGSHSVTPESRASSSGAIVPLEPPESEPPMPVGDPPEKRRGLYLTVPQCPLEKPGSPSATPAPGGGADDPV
T-type calcium channel (Homo sapiens, UniProt O43497), sequence (O43497 whole entry): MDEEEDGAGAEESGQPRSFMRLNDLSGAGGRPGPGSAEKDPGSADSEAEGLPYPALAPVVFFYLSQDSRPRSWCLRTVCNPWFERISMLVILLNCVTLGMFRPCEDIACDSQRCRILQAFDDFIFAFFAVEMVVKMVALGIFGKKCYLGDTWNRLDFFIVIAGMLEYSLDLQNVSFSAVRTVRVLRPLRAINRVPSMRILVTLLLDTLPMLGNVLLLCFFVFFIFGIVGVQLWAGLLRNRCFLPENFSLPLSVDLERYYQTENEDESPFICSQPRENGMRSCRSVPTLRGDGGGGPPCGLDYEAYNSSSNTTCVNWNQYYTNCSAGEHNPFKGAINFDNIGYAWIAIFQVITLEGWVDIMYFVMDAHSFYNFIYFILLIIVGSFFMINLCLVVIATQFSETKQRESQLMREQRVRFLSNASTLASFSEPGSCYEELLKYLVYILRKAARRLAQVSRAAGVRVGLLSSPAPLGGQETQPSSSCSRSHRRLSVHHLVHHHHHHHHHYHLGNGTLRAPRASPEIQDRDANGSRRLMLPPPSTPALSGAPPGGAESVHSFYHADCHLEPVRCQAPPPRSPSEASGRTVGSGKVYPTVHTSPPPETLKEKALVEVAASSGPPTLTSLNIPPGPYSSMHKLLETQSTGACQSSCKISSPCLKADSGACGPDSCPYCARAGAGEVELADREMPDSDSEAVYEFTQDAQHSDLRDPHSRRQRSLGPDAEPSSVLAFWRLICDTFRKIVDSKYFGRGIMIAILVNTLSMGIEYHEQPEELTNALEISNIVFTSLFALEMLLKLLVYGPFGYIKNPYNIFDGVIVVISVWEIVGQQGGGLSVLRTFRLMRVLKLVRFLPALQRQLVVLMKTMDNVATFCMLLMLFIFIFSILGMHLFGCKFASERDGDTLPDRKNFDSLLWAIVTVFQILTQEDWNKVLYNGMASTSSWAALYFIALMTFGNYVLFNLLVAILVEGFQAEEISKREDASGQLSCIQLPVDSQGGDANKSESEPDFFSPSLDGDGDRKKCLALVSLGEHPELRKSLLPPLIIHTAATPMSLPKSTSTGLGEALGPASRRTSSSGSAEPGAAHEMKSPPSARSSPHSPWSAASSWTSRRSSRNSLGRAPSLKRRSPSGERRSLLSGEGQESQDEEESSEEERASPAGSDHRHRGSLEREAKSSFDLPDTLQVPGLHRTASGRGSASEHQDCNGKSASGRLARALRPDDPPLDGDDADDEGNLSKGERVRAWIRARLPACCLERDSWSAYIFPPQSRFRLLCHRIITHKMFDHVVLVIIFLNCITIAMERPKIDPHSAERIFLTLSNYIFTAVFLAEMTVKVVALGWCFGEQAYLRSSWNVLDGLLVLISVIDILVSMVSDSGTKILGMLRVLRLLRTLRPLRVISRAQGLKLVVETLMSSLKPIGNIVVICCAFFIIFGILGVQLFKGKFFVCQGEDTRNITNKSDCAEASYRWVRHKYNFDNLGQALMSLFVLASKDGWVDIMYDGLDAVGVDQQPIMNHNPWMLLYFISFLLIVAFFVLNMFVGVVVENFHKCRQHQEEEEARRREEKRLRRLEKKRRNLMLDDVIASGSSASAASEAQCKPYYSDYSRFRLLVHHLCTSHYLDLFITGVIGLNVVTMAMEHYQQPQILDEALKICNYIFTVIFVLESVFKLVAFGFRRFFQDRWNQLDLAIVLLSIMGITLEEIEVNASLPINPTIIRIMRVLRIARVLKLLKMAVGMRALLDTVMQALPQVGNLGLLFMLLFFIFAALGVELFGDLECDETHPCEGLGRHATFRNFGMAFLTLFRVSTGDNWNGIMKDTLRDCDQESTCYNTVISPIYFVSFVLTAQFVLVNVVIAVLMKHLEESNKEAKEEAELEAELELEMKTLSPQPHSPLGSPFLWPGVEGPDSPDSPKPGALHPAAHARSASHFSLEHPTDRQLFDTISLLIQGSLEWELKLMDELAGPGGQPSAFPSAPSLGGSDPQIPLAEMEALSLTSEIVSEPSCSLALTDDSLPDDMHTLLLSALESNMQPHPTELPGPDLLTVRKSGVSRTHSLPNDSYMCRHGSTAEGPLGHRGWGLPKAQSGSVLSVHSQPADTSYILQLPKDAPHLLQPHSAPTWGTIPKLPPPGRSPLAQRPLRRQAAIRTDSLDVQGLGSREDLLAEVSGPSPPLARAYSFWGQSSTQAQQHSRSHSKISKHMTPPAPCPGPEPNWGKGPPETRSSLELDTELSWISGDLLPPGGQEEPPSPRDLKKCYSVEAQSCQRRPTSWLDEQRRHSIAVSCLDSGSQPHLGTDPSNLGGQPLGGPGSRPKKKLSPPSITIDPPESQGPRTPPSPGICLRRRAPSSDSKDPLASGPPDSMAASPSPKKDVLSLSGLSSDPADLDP

Row | SMILES | IC50 [2, 7] | IC50 [2, 8] | CAv2.2 IC50 Ratio closed/inact. [2] | IC50 [3] | IC50 [4, 9] | IC50 [4, 10] | CAv3.2 IC50 Ratio closed/inact. [4] | IC50 [1, 5] | IC50 [1, 6] | CAv1.2 IC50 Ratio closed/inact. [1]
1 | CC(C)([C@H]1C[C@@H](NS(=O)(=O)c2ccc(F)c(C(F)(F)F)c2)C1)S(=O)(=O)c1cccc(C(F)(F)F)c1 [Compound 628] | 10 µM | 1.22 µM | 8.2 | 2.18 µM | 3.22 µM | 3.26 µM | 1 | ≥ 10 µM | 5.32 µM | 1.9
2 | CC(C)(C[C@H]1C[C@H](NC(=O)c2cnc(C(F)(F)F)nc2)C1)S(=O)(=O)c1cccc(C(F)(F)F)c1 [Compound 721] | 4.86 µM | 0.51 µM | 9.5 | ≥ 10 µM | 8.44 µM | 4.32 µM | 2 | ≥ 10 µM | 4.57 µM | 2.2
3 | O=C(NC[C@H]1C[C@H](S(=O)(=O)c2cccc(OC(F)(F)F)c2)C1)c1cnc(C(F)(F)F)nc1 [Compound 696] | 7.07 µM | 0.94 µM | 7.5 | ≥ 10 µM | 9.92 µM | 6.35 µM | 1.6 | ≥ 10 µM | 8.33 µM | 1.2
4 | CC(C)([C@H]1C[C@@H](NC(=O)c2ccc(C(F)(F)F)cn2)C1)S(=O)(=O)c1cccc(C(F)(F)F)c1 [Compound 575] | 3.21 µM | 0.28 µM | 11.5 | ≥ 10 µM | 5.72 µM | 4.45 µM | 1.3 | 7.52 µM | 5.36 µM | 1.4
5 | CC(C)([C@H]1C[C@@H](NS(=O)(=O)c2ccc(C(F)(F)F)cc2Cl)C1)S(=O)(=O)c1cccc(C(F)(F)F)c1 [Compound 627] | 10 µM | 0.88 µM | 11.4 | 2.38 µM | 2.2 µM | 1.33 µM | 1.7 | ≥ 10 µM | 5.86 µM | 1.7
6 | CC(C)([C@H]1C[C@@H](NC(=O)c2ccc(Cl)c(F)c2)C1)S(=O)(=O)c1cc(F)cc(C(F)(F)F)c1 [Compound 589] | 2.37 µM | 0.27 µM | 8.8 | 4.03 µM | 4.14 µM | 1.07 µM | 3.9 | 4.91 µM | 1.8 µM | 2.7
7 | O=C(NC[C@H]1C[C@H](S(=O)(=O)c2cccc(C(F)(F)F)c2)C1)c1ccc(C(F)(F)F)nc1 [Compound 571] | 10 µM | 0.42 µM | 23.8 | ≥ 10 µM | ≥ 10 µM | 10 µM | 1 | ≥ 10 µM | ≥ 10 µM | 
8 | CC(C)([C@H]1C[C@H](NC(=O)c2ccc(Cl)cn2)C1)S(=O)(=O)c1cccc(C(F)(F)F)c1 [Compound 673] | 1.88 µM | 0.2 µM | 9.4 | 6.56 µM | 5.37 µM | 4.33 µM | 1.2 | ≥ 10 µM | 4.57 µM | 2.2
9 | O=C(NC[C@H]1C[C@H](S(=O)(=O)c2cccc(OC(F)(F)F)c2)C1)c1ccc(C(F)(F)F)nc1 [Compound 695] | 5.12 µM | 0.78 µM | 6.6 | 9.87 µM | 8.58 µM | 5.58 µM | 1.5 | ≥ 10 µM | ≥ 10 µM | 
10 | CC(C)([C@H]1C[C@@H](NC(=O)c2ccc(C(F)(F)F)cc2S(C)(=O)=O)C1)S(=O)(=O)c1cccc(OC(F)(F)F)c1 [Compound 643] | 10 µM | 0.47 µM | 21.3 | 4.17 µM | 8.38 µM | 7.16 µM | 1.2 | ≥ 10 µM | 9.25 µM | 1.1
11 | CC(C)(C1CC(CNC(=O)c2cc(C(F)(F)F)n[nH]2)C1)S(=O)(=O)c1cccc(C(F)(F)F)c1 (stereo not drawn) [Compound 682] | 6.64 µM | 0.53 µM | 12.5 | ≥ 10 µM | 2.31 µM |  |  | ≥ 10 µM | 2.16 µM | 4.6
12 | CC(C)([C@H]1C[C@@H](NC(=O)c2cc(C(F)(F)F)n[nH]2)C1)S(=O)(=O)c1cc(F)cc(C(F)(F)F)c1 [Compound 587] | 5.55 µM | 0.72 µM | 7.7 | ≥ 10 µM | 6.56 µM | 3.6 µM | 1.8 | ≥ 10 µM | 4.85 µM | 2.1
13 | CC(C)([C@H]1C[C@@H](Nc2ccnc(C(F)(F)F)n2)C1)S(=O)(=O)c1cccc(OC(F)(F)F)c1 [Compound 646] | 4.23 µM | 1.03 µM | 4.1 | 4.59 µM | 5.27 µM | 3.9 µM | 1.4 | 8 µM | 2.33 µM | 3.4
14 | CC(C)([C@H]1C[C@@H](NS(=O)(=O)c2ccc(F)c(C(F)(F)F)c2)C1)S(=O)(=O)c1cc(F)cc(C(F)(F)F)c1 [Compound 601] | 7.07 µM | 0.9 µM | 7.9 | 3.82 µM | ≥ 10 µM | 4.97 µM | 2 | 8.84 µM | 2.86 µM | 3.1

Compounds with a lower IC50 [2, 7], results first:

Row | IC50 [2, 7] | IC50 [2, 8] | CAv2.2 IC50 Ratio closed/inact. [2] | IC50 [3] | IC50 [4, 9] | IC50 [4, 10] | CAv3.2 IC50 Ratio closed/inact. [4] | SMILES | IC50 [1, 5] | IC50 [1, 6] | CAv1.2 IC50 Ratio closed/inact. [1]
15 | 1.66 µM | 0.26 µM | 6.4 | 5.12 µM | 3.29 µM | 1.27 µM | 2.6 | CC(C)(C1CC(CNC(=O)c2ccc(OCC(F)(F)F)nc2)C1)S(=O)(=O)c1cccc(C(F)(F)F)c1 (stereo not drawn) [Compound 619] | 4.42 µM | 1.36 µM | 3.3
16 | 0.86 µM | 0.04 µM | 21.5 | 2.18 µM | 2.06 µM | 0.52 µM | 4 | CC(C)(C[C@H]1C[C@@H](NC(=O)c2ccc(OCC(F)(F)F)nc2)C1)S(=O)(=O)c1cccc(C(F)(F)F)c1 [Compound 737] | 4.23 µM | 1.28 µM | 3.3
17 | 1.77 µM | 0.34 µM | 5.2 | ≥ 10 µM | 7.95 µM | 2.77 µM | 2.9 | O=C(NC[C@H]1C[C@H](S(=O)(=O)c2cccc(OC(F)(F)F)c2)C1)c1ccc(Cl)cn1 [Compound 693] | ≥ 10 µM | 6.64 µM | 1.5
18 | 1.73 µM | 0.26 µM | 6.7 | 9.74 µM | 3.13 µM | 1.11 µM | 2.8 | CC(C)([C@H]1C[C@H](NC(=O)c2ccc(Cl)c(F)c2)C1)S(=O)(=O)c1cc(F)cc(C(F)(F)F)c1 [Compound 596] | 3.63 µM | 1.43 µM | 2.5
19 | 1.43 µM | 0.17 µM | 8.4 | 3.8 µM | 3.12 µM | 1.21 µM | 2.6 | CC(C)([C@H]1C[C@H](NC(=O)c2ccc(F)c(Cl)c2)C1)S(=O)(=O)c1cc(F)cc(C(F)(F)F)c1 [Compound 597] | 3.7 µM | 0.86 µM | 4.3
20 | 1.24 µM | 0.11 µM | 11.3 | 1.78 µM | 0.73 µM | 0.64 µM | 1.1 | CC(C)(C[C@H]1C[C@H](NC(=O)c2ccc(C(F)(F)F)cc2)C1)S(=O)(=O)c1cccc(C(F)(F)F)c1 [Compound 719] | 2.73 µM | 0.75 µM | 3.6
21 | 1.3 µM | 0.12 µM | 10.8 | 2.47 µM | 1.99 µM | 0.35 µM | 5.7 | CC(C)(C1CC(CNC(=O)c2ccc(F)c(Cl)c2)C1)S(=O)(=O)c1cccc(C(F)(F)F)c1 (stereo not drawn) [Compound 618] | 4.08 µM | 0.3 µM | 13.6
22 | 1.37 µM | 0.25 µM | 5.5 | ≥ 10 µM | ≥ 10 µM | 7.17 µM | 1.4 | CC(C)(C1CC(CNC(=O)c2ccnc(C(F)(F)F)n2)C1)S(=O)(=O)c1cccc(C(F)(F)F)c1 (stereo not drawn) [Compound 615] | ≥ 10 µM | 5.61 µM | 1.8
